Source: US20100247461A1, “ANTI-INFLAMMATORY COMPLEXES” (Signum Biosciences, Inc., priority 2009, published 2010)

How the values were obtained:
[1] = system: TPA-treated mouse ears (edema, ear thickness); assay: TPA mouse ear model of inflammation - edema inhibition; format: in vivo; details: TPA-treated mouse ear
Procedure: In brief, mice were sedated and their ears were treated with 1.2 μg/20 uL TPA (i.e., tetradecanoylphorbol-13-acetate). After 5 minutes, we dosed these TPA-treated ears with a single 8 μg/20 μL dose, a 2 μg/20 μL dose, or both doses, of provided complexes. After 24 hours, the mice were sacrificed and edema was measured by taking micrometer readings of each ear. […] These values were corrected for the thickness of normal, non TPA-treated mouse ears of littermate controls.

neutrophils = assay: Inhibition of oxidative burst from neutrophils (fMLP-induced superoxide release); format: cell-based; details: Neutrophil, reduction of superoxide formation, fMLP 0.2 μM, 0 to 100 μM compound; read-out: ED50 Respiratory Burst
Procedure: During inflammation, neutrophils produce and release superoxide ions, otherwise known as oxidative burst response, causing cytotoxicity. […] The superoxide release assay is based on published protocols (Goldstein et al. (1975). J. Clin. Invest. 56(5): 1155-63). Briefly, cells were pre-incubated for 10 min at 37° C. with a mixture of cytochrome c (75 μM final concentration), cytochalasin B (5 μg/ml) with or without superoxide dismutase (SOD) (10 μg/ml) and with or without AFC, AFC-Calcium complex, and AFC-Strontium complex (ranging from 0 to 100 μM). To initiate O2^− release, fMLP (0.2 μM) was added the cells are incubated for 10 min at 37° C. Samples were then placed on ice for 5 min and subsequently centrifuged at 3,000 rpm at 4° C. The supernatant was then analyzed by spectrophotometric measurement at 550 and 556.5 nm. The ED50 values for the reduction of superoxide formation, obtained with AFC, AFC-Calcium complex, and AFC-Strontium complex are depicted in Table 2.

[2] = system: MPO (myeloperoxidase), neutrophil marker; assay: TPA mouse ear model of inflammation - MPO inhibition (dermal neutrophil infiltration); format: in vivo; details: TPA-treated mouse ear
Procedure: Briefly, we homogenized 6mm biopsy punches taken from both compound-treated ears as well as TPA-treated and non-treated control groups. We quantitated the levels of MPO by a colorimetric reaction that was measured spectrophotometrically. The percent inhibition of neutrophil infiltration by each complex was determined by comparing the average MPO levels in the presence and absence of these compounds. The calculation for percent inhibition of MPO was determined similar to that as described for calculating the percent edema inhibition, see the Edema Inhibition protocol, supra.

[3] = at the dose tested, AFC oil n=1, data not shown

## CC(=O)N[C@@H](CSC/C=C(\C)CC/C=C(\C)CCC=C(C)C)C(=O)O [AFC, N-acetyl-S-farnesyl-L-cysteine, reference compound]
[1]; [3]
  inhibition of edema: 56.35%
[1]; topical, listed as AFC oil
  ED50 for edema inhibition: 54.8 mM
neutrophils
  EC50: 0.0433 mM
[2]; [3]
  inhibition of neutrophil infiltration: 55.90%
[2]; several concentrations, inhibitory activity curves
  ED50 in the MPO assay: 651 μg/ear
[2]; topical, 4% concentration, 24 hours
  % MPO Inhibition in the Mouse Ear Inflammation Assay (4% concentration): ++ (“++” indicates a range of 40-80%)
[2]; topical, listed as AFC oil
  ED50 value for inhibiting neutrophil infiltration: 38.8 mM
